Measured values reported in US20240041037A1, “DISINFECTANT AND USE THEREOF” (priority 2021, published 2024).

Columns and labels:
Type in all cases: cell-based
[1] = test system: Bacteria (aerobic spore-formers); assay: Germ content determination (Ph. Eur. 6.8, Chapter 2.6.12) of aqueous walnut shell meal slurry: bacteria
Method: (§1) Test Equipment: • A BF 720 incubator is used. • A spiral plater is used as a plating device, with which a predefined volume of the suspension to be checked for germs is applied to the culture medium. For example, an Eddy-Jet 2W spiral plater is used.
(§2) The germ count takes place in the screening by the Envirocheck® system for confirmation according to the Ph Eur.6.8. Chapter 2.6.12.
(§3) Subculturing: • The subculturing is carried out by a spiral plater using a corresponding program, depending on the requirements (for example, in one program, higher germ quantities may be more easily broken down by the gradient of the applied product or, in another program, a greater amount may be applied, which drops the lower determination limit). • One (in the case of double samples, two) fungus culture medium and one bacteria culture medium each are taken for each sample. • Standard total germ count checks are performed with no double determination.
(§4) Neutralization: • A neutralization, if it is to be carried out, takes place using 50% NaOH.
(§5) Incubation: • Bacteria: 2-3 days at 30+/−2° C. in the corresponding incubators; • Yeast/fungus: 3-5 days at room temperature away from light.
(§6) . This amount was maintained at pH 2.9 in the subsequent tests. Following a predefined time span T in minutes, one sample each was collected and incubated for 48 hours in an incubator in order to subsequently determine its germ load. The time span T thus corresponds to the contact time of the disinfectant, in the present case only citric acid.
(§7) The germ count after incubation takes place using the Environcheck® test sticks immediately or in an outside laboratory. For the external check, the product is cooled and stored for at least 1 day at 8° C. and transferred in a polystyrene box.
(§8) The germ content determination is based on the Ph. Eur.6.8—germ content, Chapter 2.6.12
(§9) […]. The sample was then again adjusted to pH 7 using sodium hydroxide solution and incubated in the incubator for 48 hours. The germs in the individual samples were subsequently counted again using the Envirocheck® system internally or using an outside institute by a previously cooled stored product for 1 day.
(§10) . The germ count determination is based on the Ph. Eur. 6.8—Germ content, Chapter 2.6.12

Fungi = assay: Germ content determination (Ph. Eur. 6.8, Chapter 2.6.12) of aqueous walnut shell meal slurry: fungi
Method: as §1, §2, §3, §4, §5, §6, §7, §8, §9, §10

Yeasts = assay: Germ content determination (Ph. Eur. 6.8, Chapter 2.6.12) of aqueous walnut shell meal slurry: yeasts
Method: as §1, §2, §3, §4, §5, §6, §7, §8, §9, §10

[2] = test system: total germ count of walnut shell meal slurry; assay: Germ content determination (Ph. Eur. 6.8, Chapter 2.6.12) of aqueous walnut shell meal slurry: total germ count
Method: as §1, §2, §4, §5
Following a predefined time span T in minutes, one sample each was collected and incubated for 48 hours in an incubator in order to subsequently determine its germ load.
as §7, §8
The subsequent incubation of the sample took place over 48 hours.
The sample was then again adjusted to pH 7 using sodium hydroxide solution and incubated in the incubator for 48 hours. The germs in the individual samples were subsequently counted again using the Envirocheck® system internally or using an outside institute by a previously cooled stored product for 1 day.
The germ count determination is based on the Ph. Eur. 6.8—Germ content, Chapter 2.6.12

[3] = pH 2.9, contact time 15 minutes
[4] = pH 2.9, contact time 30 minutes
[5] = pH 2.9, contact time 45 minutes
[6] = pH 2.9, contact time 60 minutes

| Compound | Bacteria [1, 3] | Bacteria [1, 4] | Bacteria [1, 5] | Bacteria [1, 6] | Fungi (Fungi; [3]) | Fungi (Fungi; [4]) | Fungi (Fungi; [5]) | Fungi (Fungi; [6]) | Yeasts (Yeasts; [3]) | Yeasts (Yeasts; [4]) | Yeasts (Yeasts; [5]) | Yeasts (Yeasts; [6]) | TGC (total germ count) [2, 3] | TGC (total germ count) [2, 4] | TGC (total germ count) [2, 5] | contact time after which germ load reduction clearly identifiable ([2]; pH 2.9) |
| --- | --- | --- | --- | --- | --- | --- | --- | --- | --- | --- | --- | --- | --- | --- | --- | --- |
| O=C(O)CC(O)(CC(=O)O)C(=O)O [citric acid] | 60 CFU/g or mL | 100 CFU/g or mL | 200 CFU/g or mL | 170 CFU/g or mL | 50 CFU/g or mL | 55 CFU/g or mL | 35 CFU/g or mL | 20 CFU/g or mL | 140 CFU/g or mL | 140 CFU/g or mL | — (<7 CFU/g or mL) | 35 CFU/g or mL | 250 CFU/g or mL | 295 CFU/g or mL | 235 CFU/g or mL |  |
| CC(O)C(=O)O (stereo not shown) [lactic acid] |  |  |  |  |  |  |  |  |  |  |  |  |  |  |  | 5 min |
